Assay results from patent US11040947B2, “Substituted quinazolines as matrix metalloproteinase-9 hemopexin domain inhibitors” (The Research Foundation for The State University of New York, priority 2017, dated 2021).

Assays:
[1] = test system: EGFR-CD44 and EGFR-β1 integrin interaction; assay: EGFR co-IP assay with CD44 and β1 integrin in HT1080 cells; format: cell-based, Human; details: 50 μM
Protocol: HT1080 cells were treated with 50 μM 3c, 1a, 1f or DMSO alone. Cell lysates were collected and analyzed by a co-IP assay in which endogenous EGFR was captured with an anti-EGFR antibody and served as an input control. CD44 and β1 integrin were individually probed on the immunoblot.

[2] = test system: FAK and PAX adhesion junctions in HT1080 cells; assay: focal adhesion complexes, immunofluorescence in HT1080 cells; format: cell-based, Human; details: 50 μM overnight
[3] = test system: EGFR^Tyr1068, AKT^Ser473, Erk1/2^Thr202/Tyr204 phosphorylation; assay: phosphorylation of EGFR and downstream targets in HT1080 cells; format: cell-based, Human; details: 50 μM overnight
[4] = test system: proMMP-9/MMP-2PEX chimera; assay: tryptophan fluorescence titration with chimera; format: binding
Protocol: A blue shift in proMMP-9 tryptophan fluorescence was monitored to determine the binding affinity of all compounds. Binding of a test compound to MMP-9 was assayed by observing the change of tryptophan emission upon binding. Purified recombinant MMP-9 (50 nmol/L) or MMP-9/MMP-2PEX (50 nmol/L) was diluted in buffer (50 mmol/L Tris-HCl, 60 mmol/L KCl, and 0.05% Tween 20, pH 7.4) in the presence or absence of the test compound. As a control for protein stability and loss, an analogous buffer solution was added to the protein. The protein sample was excited at 280 nm and emission scans were collected from 290 to 400 nm, using slit widths of 0.3 nm on a QM 4/200SE spectrofluorimeter with double excitation and emission monochromators. Three emission scans were collected and averaged at each concentration. The Kd was determined using the Prism software package (GraphPad V5) to fit the data to Equation (Δ). λmax=(λmax^∞×[2])/(Kd+[2]) (A) in which λmax is the wavelength at which maximal fluorescence of the protein was observed.
A chimera of proMMP-9 and MMP-2 in which the MMP-9 PEX domain was replaced by that of MMP-2, (proMMP-9/MMP-2PEX) was tested for analog binding.

MMP-9 dimer = biological target: T1, MMP-9 dimer (Homo sapiens, UniProt P14780); assay: MMP-9 dimer formation, Myc/HA co-immunoprecipitation in HT1080 cells; format: cell-based; details: 50 μM overnight, compared to control compound 1f
T1 construct: expressed in transfected cells; host or cells: HT1080 human fibrosarcoma cells
Description: Human fibroscarcoma HT1080 cells were co-transfected with MMP-9 cDNAs tagged with either a Myc or HA tag as previously reported. […] Using Myc antibody for immunoprecipitation and HA antibody for immunoblotting, the formation of dimeric MMP-9 was monitored.

HT1080 cells [5] = assay: chorioallantoic membrane (CAM) assay, angiogenesis; format: in vivo, chicken embryo; details: 100 μM stock solution (final estimated 0.5 μM), 4-day incubation, vs DMSO and 1f
Protocol: A CAM assay was carried out to evaluate angiogenic and invasive potential of HT1080 cells after treatment with 3c. […] After a 4-day incubation, neovascularization was imaged and quantified.

HT1080 cells [6] = assay: cell adhesion to collagen or fibronectin coated plate; format: cell-based, Human; details: 37° C. 30 min
Protocol: A 96-well plate was coated with a thin layer of either collagen or fibronectin (5 μg/ml in PBS) substrate before use. HT1080 cells were then seeded onto wells and incubated at 37° C. for 30 min in the presence of various inhibitors. Wells were washed and cells were fixed in 4% paraformaldehyde and stained with DAPI. Images of each 96-well were microscopically captured and counted for the number of cells still adherent to the coated surface using automated computer software.

[7] = test system: HT1080 fibrosarcoma cells; assay: chronic toxicity in HT1080 cells; format: cell-based, Human; details: 100 μM, HT1080 cells re-treated every three days for nine days
Protocol: (§1) Compound 3c was evaluated for acute cytotoxicity. COS-1 cells stably expressing either vector control or proMMP-9 cDNA were treated with 50 μM 3c for 24 hours. As negative and positive controls, cells were treated with DMSO alone or 100 nM staurosporine (STS), an apoptosis inducer, respectively. […] A non-statistically significant 8% decrease in cell growth occurred after treatment with 50 μM of compound 3c. These experiments were repeated in endogenous MMP-9 expressing HT1080 fibrosarcoma cells, which were analyzed for chronic toxicity (cells were re-treated every three days for a total of nine days).

[8] = test system: proMMP-2-mediated migration of COS-1 cells; assay: two-dimensional dot migration assay, COS-1 cells stably expressing proMMP-2; format: cell-based
Protocol: (§2) To test whether compound 3c is specific for inhibiting only proMMP9-mediated migration, a two-dimensional dot migration assay was performed using COS-1 cells engineered to stably express vector control pQCXIP, proMMP-2, proMMP-9, or proMMP-14 cDNA vectors. An immunoblot was performed to confirm protein expression and proper localization of each MMP (MMP-2/-9 are secreted while MMP-14 is membrane bound).

[9] = biological target: T2, APMA-activated recombinant proMMP-9 (Homo sapiens, UniProt P14780); assay: MMP-9 catalytic activity with fluorogenic peptide; format: biochemical; details: 10 μM fluorogenic peptide, monitored over 2 hours
T2 construct: made in house
Protocol: Recombinant proMMP-9 protein was purified and incubated overnight in a 37° C. water bath in TNC buffer+1 mM APMA to artificially activate the protein.

[10] = biological target: T3, MMP-9 association with CD44 and EGFR (Homo sapiens, UniProt P14780); assay: co-immunoprecipitation of endogenous CD44 and EGFR with MMP-9 in HT1080 cells; format: cell-based; details: 50 μM overnight
T3 construct: expressed in transfected cells; host or cells: HT1080 human fibrosarcoma cells (MMP-9 transfected; CD44 and EGFR endogenous)

[11] = test system: MMP-9 at the cell surface of HT1080 cells; assay: MMP-9 cell surface localization, immunofluorescence in HT1080 cells; format: cell-based, Human
Protocol: HT1080 cells were fixed in 4% paraformaldehyde then subsequently incubated with anti-MMP-9 in addition to anti-α4 and/or β1 integrin antibodies to monitor relative levels of localization of these proteins at the cell surface. The cells were counterstained with DAPI nuclear dye.

[12] = test system: proMMP-14-mediated migration of COS-1 cells; assay: two-dimensional dot migration assay, COS-1 cells stably expressing proMMP-14; format: cell-based
Protocol: as §2

[13] = test system: HT1080 cells stably expressing GFP; assay: chorioallantoic membrane (CAM) assay, invasion; format: in vivo, chicken embryo; details: 100 μM stock solution (final estimated 0.5 μM), vs DMSO or 1f
Protocol: HT1080 cells stably expressing GFP were mixed with a type I collagen solution (3 mg/mL) and seeded atop the CAM to ensure the cells localized to a specific area. […] The invasion of cancer cells through the epithelium and basement membrane of the upper CAM into connecting tissue was examined by hematoxylin and eosin staining in addition to fluorescence microscopy for GFP^+ cells.

[14] = test system: COS-1 cells stably expressing vector control or proMMP-9; assay: acute cytotoxicity in COS-1 cells; format: cell-based; details: 50 μM, 24 hours, non-statistically significant
Protocol: as §1

T2 sequence (P14780 107-707 limits assumed): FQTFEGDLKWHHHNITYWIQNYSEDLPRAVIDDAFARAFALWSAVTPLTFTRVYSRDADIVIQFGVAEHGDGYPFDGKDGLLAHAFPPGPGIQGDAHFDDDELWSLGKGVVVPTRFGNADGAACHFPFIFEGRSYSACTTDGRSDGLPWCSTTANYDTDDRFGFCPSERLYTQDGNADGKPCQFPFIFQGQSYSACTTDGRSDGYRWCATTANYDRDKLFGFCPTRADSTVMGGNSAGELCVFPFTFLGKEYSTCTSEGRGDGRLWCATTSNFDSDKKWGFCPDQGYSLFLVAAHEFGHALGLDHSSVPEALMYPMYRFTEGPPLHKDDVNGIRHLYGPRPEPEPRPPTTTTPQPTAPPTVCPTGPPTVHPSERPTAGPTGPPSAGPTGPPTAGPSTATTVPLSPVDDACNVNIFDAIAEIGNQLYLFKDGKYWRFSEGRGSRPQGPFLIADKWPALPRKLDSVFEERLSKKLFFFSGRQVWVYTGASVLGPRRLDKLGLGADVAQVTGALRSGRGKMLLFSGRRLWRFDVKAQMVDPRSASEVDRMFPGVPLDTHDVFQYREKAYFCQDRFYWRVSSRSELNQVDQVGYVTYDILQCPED
T3 sequence (P14780 94-707): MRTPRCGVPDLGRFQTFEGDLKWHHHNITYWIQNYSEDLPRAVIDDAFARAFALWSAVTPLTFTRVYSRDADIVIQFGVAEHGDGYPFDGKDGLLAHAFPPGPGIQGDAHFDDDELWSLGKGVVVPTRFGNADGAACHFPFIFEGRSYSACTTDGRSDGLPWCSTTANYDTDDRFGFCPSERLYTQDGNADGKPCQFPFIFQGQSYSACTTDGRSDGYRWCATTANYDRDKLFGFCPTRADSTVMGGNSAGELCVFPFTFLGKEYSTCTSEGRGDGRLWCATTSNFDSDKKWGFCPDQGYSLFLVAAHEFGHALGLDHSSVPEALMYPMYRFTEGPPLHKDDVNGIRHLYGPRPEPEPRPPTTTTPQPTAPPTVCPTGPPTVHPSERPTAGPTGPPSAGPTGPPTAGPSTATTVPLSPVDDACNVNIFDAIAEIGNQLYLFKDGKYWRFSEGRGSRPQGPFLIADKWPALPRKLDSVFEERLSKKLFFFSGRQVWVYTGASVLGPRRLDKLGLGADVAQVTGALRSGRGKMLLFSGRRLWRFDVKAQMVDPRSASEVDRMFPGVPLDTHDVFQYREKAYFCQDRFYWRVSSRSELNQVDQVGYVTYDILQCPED
T1 sequence (P14780 94-707): as above

## O=C(CCCSc1nc2c(c(=O)[nH]1)CCCC2)Nc1ccc(F)cc1 [Compound 3c, N-(4-Fluorophenyl)-4-(4-oxo-3,4,5,6,7,8-hexahydroquinazolin-2-ylthio)butanamide]
[1]
  interaction between EGFR-CD44 and EGFR-β1 integrin: Decreased interaction between EGFR-CD44 and EGFR-β1 integrin
[2]
  formation of FAK and PAX adhesion junctions: A decrease in the formation of FAK and PAX adhesion junctions
[3]
  phosphorylation of EGFR^Tyr1068 and downstream targets AKT^Ser473 and Erk1/2^Thr202/Tyr204: reduced phosphorylation
[4]
  shift in fluorescence upon titration with chimera: no shift in fluorescence was observed
MMP-9 dimer
  MMP-9 dimer formation: significantly blocked MMP-9 dimer formation
HT1080 cells [5]
  angiogenic potential of HT1080 cells (neovascularization): significantly reduced the angiogenic potential of HT1080 cells
HT1080 cells [6]
  cellular adhesion: inhibited cellular adhesion
[7]
  cell death, chronic toxicity: No cell death was observed
[8]
  inhibition of proMMP-2-mediated migration: only inhibited proMMP9-mediated migration
[9]
  inhibition of MMP-9 catalytic activity: No inhibition of the catalytic activity was observed
[10]
  endogenous CD44 and EGFR co-immunoprecipitation: reduced endogenous CD44 and EGFR co-immunoprecipitation
[11]
  localization of MMP-9 on the cell surface: loss of MMP-9 from the cell surface
[12]
  inhibition of proMMP-14-mediated migration: only inhibited proMMP9-mediated migration
[13]
  invasion of CAM tissue: reduced invasion of CAM tissue
[14]
  decrease in cell growth: 8%
